According to ChEMBL document CHEMBL1201862, “PubChem BioAssay data set” (2004):
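In this assay, cells in 96-well plates receive the compound at five concentrations for 48 hours. Endpoints are linearly interpolated between the surrounding concentrations. Here, GI50 denotes the concentration required for 50% inhibition of growth.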 The source made the active and inactive calls. No stated cut-off is given here; in the data, active = GI50 up to about 1.1 µM and inactive = higher.

Key:
Experiment in all cases: NCI anticancer screen, dose series, 48 h
SK-MEL-5 = tested on: SK-MEL-5
HCT-15 = tested on: HCT-15
OVCAR-8 = tested on: OVCAR-8
KM12 = tested on: KM12
SNB-19 = tested on: SNB-19
HT-29 = tested on: HT-29
SN12C = tested on: SN12C
SNB-78 = tested on: SNB-78
786-0 = tested on: 786-0
LOX IMVI = tested on: LOX IMVI
OVCAR-3 = tested on: OVCAR-3
NCI-H460 = tested on: NCI-H460
SNB-75 = tested on: SNB-75
M14 = tested on: M14
SF-268 = tested on: SF-268
HL-60 = tested on: HL-60
HCT-116 = tested on: HCT-116
UACC-62 = tested on: UACC-62
BT-549 = tested on: BT-549
A498 = tested on: A498

Row | Compound | GI50 (SK-MEL-5) | GI50 (HCT-15) [µM] | GI50 (OVCAR-8) | GI50 (KM12) | GI50 (SNB-19) | GI50 (HT-29) | GI50 (SN12C) | GI50 (SNB-78) | GI50 (786-0) | GI50 (LOX IMVI) | GI50 (OVCAR-3) | GI50 (NCI-H460) | GI50 (SNB-75) | GI50 (M14) | GI50 (SF-268) | GI50 (HL-60) | GI50 (HCT-116) | GI50 (UACC-62) | GI50 (BT-549) | GI50 (A498)
1 | O=C(c1ccccc1)C(c1ccccc1)C1(O)C(=O)Nc2c(Cl)cc(Cl)cc21 (centres undefined) | 15.8 µM (inactive) | 39.4 | 16.1 µM (inactive) | 23 µM (inactive) | 21.7 µM (inactive) | 23.9 µM (inactive) | > 100 µM (inactive) | 24.7 µM (inactive) | 14.7 µM (inactive) | 19.5 µM (inactive) | 26 µM (inactive) | 28.2 µM (inactive) | 15.3 µM (inactive) | 17.9 µM (inactive) | 21.2 µM (inactive) | 12.6 µM (inactive) |  |  |  | 
2 | C#CCn1c(=O)c2cccnc2n(CC#C)c1=O | > 100 µM (inactive) | > 100 |  | > 100 µM (inactive) | > 100 µM (inactive) | > 100 µM (inactive) | > 100 µM (inactive) | > 100 µM (inactive) | > 100 µM (inactive) | > 100 µM (inactive) |  | > 100 µM (inactive) | > 100 µM (inactive) | > 100 µM (inactive) | > 100 µM (inactive) | > 100 µM (inactive) | > 100 µM (inactive) |  |  | 
3 | O=C(O)/C=C\C(=O)Nc1ccc(S(=O)(=O)c2ccc(NC(=O)/C=C\C(=O)O)cc2)cc1 | > 100 µM (inactive) | > 100 | > 100 µM (inactive) | > 100 µM (inactive) | > 100 µM (inactive) | > 100 µM (inactive) | > 100 µM (inactive) | > 100 µM (inactive) | > 100 µM (inactive) | > 100 µM (inactive) | > 100 µM (inactive) |  | > 100 µM (inactive) | > 100 µM (inactive) | > 100 µM (inactive) | > 100 µM (inactive) | > 100 µM (inactive) | > 100 µM (inactive) |  | 
4 | CCOC(=O)Cn1nnc2ccc(Nc3nc4ccccc4nc3C(=O)OCC)cc21 | > 100 µM (inactive) | > 100 | > 100 µM (inactive) | > 100 µM (inactive) | 69.5 µM (inactive) | > 100 µM (inactive) | > 100 µM (inactive) |  | 89.3 µM (inactive) | > 100 µM (inactive) | > 100 µM (inactive) | > 100 µM (inactive) | 18.5 µM (inactive) | > 100 µM (inactive) | 27.2 µM (inactive) | > 100 µM (inactive) | > 100 µM (inactive) | 65.3 µM (inactive) | 73.8 µM (inactive) | > 100 µM (inactive)
5 | Cc1nc2c(N3CCCC3)nc(N3CCNCC3)nc2nc1NCc1ccccc1 | 1.65 µM (inactive) | 2.09 | 3.37 µM (inactive) | 2.84 µM (inactive) | 5.66 µM (inactive) | 2.41 µM (inactive) | 7.29 µM (inactive) |  | 4.9 µM (inactive) | 1.65 µM (inactive) | 2.43 µM (inactive) | 3.56 µM (inactive) | 0.578 µM (active) | 1.94 µM (inactive) | 3.85 µM (inactive) | 3.61 µM (inactive) | 1.62 µM (inactive) | 2.79 µM (inactive) | 2.4 µM (inactive) | 4.79 µM (inactive)
6 | COc1ccc(C2c3cc4c(cc3OC(NNS(=O)(=O)c3ccc(C)cc3)C2C)OCO4)cc1 (centres undefined) | 69.5 µM (inactive) | 70.1 | > 100 µM (inactive) | 65.9 µM (inactive) | > 100 µM (inactive) | 93.8 µM (inactive) | > 100 µM (inactive) |  | 50.1 µM (inactive) | 79.8 µM (inactive) | 80.7 µM (inactive) | 41 µM (inactive) | 37.4 µM (inactive) | > 100 µM (inactive) | > 100 µM (inactive) | 21.6 µM (inactive) | 45.9 µM (inactive) | 71.6 µM (inactive) | 53.5 µM (inactive) | 78.5 µM (inactive)
7 | COc1ccc(/C(=N/N=c2[nH]c3ccccc3[nH]2)C(=O)O)cc1 | > 100 µM (inactive) | > 100 | > 100 µM (inactive) | > 100 µM (inactive) | > 100 µM (inactive) | > 100 µM (inactive) | > 100 µM (inactive) |  | > 100 µM (inactive) | > 100 µM (inactive) | > 100 µM (inactive) | > 100 µM (inactive) | > 100 µM (inactive) | > 100 µM (inactive) | > 100 µM (inactive) | > 100 µM (inactive) | > 100 µM (inactive) | > 100 µM (inactive) | > 100 µM (inactive) | > 100 µM (inactive)
8 | OCCOCCO[P+]1(OCCOCCO)n2c3ccc2C(c2ccccc2)=C2C=CC(=N2)C(c2ccccc2)=c2ccc(n21)=C(c1ccccc1)C1=NC(=C3c2ccccc2)C=C1 | 0.0506 µM (active) | 1.51 | 0.174 µM (active) | 0.0331 µM (active) | < 0.01 µM (active) | 0.0845 µM (active) | 0.11 µM (active) |  | 0.179 µM (active) | 0.0989 µM (active) | 0.033 µM (active) | 0.076 µM (active) | 0.0491 µM (active) | 0.272 µM (active) | 0.0618 µM (active) | 0.0235 µM (active) | 0.0836 µM (active) | 0.0618 µM (active) | 0.0385 µM (active) | 8.57 µM (inactive)
9 | COc1cc2c(c(OC)c1OC)-c1ccc(=O)c(O)cc1[C@@H](NC(C)=O)CC2 [COLCHICEINE] | 7.66 µM (inactive) | 10.7 | 13.3 µM (inactive) | 15 µM (inactive) | 25.4 µM (inactive) | 16.1 µM (inactive) | 16.8 µM (inactive) |  | 23.3 µM (inactive) | 12.6 µM (inactive) | 29.6 µM (inactive) | 12.3 µM (inactive) | 40.6 µM (inactive) | 24.7 µM (inactive) | 25.7 µM (inactive) | 4.99 µM (inactive) | 27.7 µM (inactive) | 13.2 µM (inactive) | 14.6 µM (inactive) | 18.4 µM (inactive)
10 | Cc1sc2[nH]c(=O)oc(=O)c2c1C | 48.3 µM (inactive) | > 89.9 | 65.8 µM (inactive) | 34.9 µM (inactive) | > 100 µM (inactive) | > 71.9 µM (inactive) | > 76.2 µM (inactive) |  | 70.3 µM (inactive) | 44.6 µM (inactive) | 55 µM (inactive) | > 100 µM (inactive) | > 55.8 µM (inactive) | > 61.9 µM (inactive) | 53.8 µM (inactive) | 37 µM (inactive) | > 100 µM (inactive) | 52.1 µM (inactive) | 22.9 µM (inactive) | > 100 µM (inactive)
11 | NC(=O)C(c1ccccc1)N1OC2C(=O)N(Cc3ccccc3)C(=O)C2C1c1cccc(Oc2ccc(Cl)cc2)c1 (centres undefined) | 15.9 µM (inactive) | 30.4 | 39.7 µM (inactive) | 28.3 µM (inactive) | 37.1 µM (inactive) | 18.2 µM (inactive) | 16.4 µM (inactive) |  | 21.3 µM (inactive) | 15.7 µM (inactive) | 19.9 µM (inactive) | 28.8 µM (inactive) | 31.7 µM (inactive) | 23.6 µM (inactive) | 35.8 µM (inactive) | 23.4 µM (inactive) | 19.4 µM (inactive) | 15.8 µM (inactive) | 34 µM (inactive) | 52.1 µM (inactive)
12 | COCN1C(=O)C2CC(/C=C/C(N)=O)=CN2C(=O)c2ccccc21 (centres undefined) | > 100 µM (inactive) |  | > 100 µM (inactive) | > 100 µM (inactive) | > 100 µM (inactive) | > 100 µM (inactive) | > 100 µM (inactive) | > 100 µM (inactive) | > 100 µM (inactive) | > 100 µM (inactive) | > 100 µM (inactive) | > 100 µM (inactive) | > 100 µM (inactive) | > 100 µM (inactive) | > 100 µM (inactive) | > 100 µM (inactive) | > 100 µM (inactive) | > 100 µM (inactive) |  | 
13 | CCOc1ccc(/C=C2/C(=O)N/C(=N\C(C)=O)N2C)cc1 | > 100 µM (inactive) | 64.7 | > 100 µM (inactive) | > 100 µM (inactive) | > 100 µM (inactive) | > 100 µM (inactive) | > 100 µM (inactive) |  | > 100 µM (inactive) | > 100 µM (inactive) | > 100 µM (inactive) | 67.5 µM (inactive) | > 100 µM (inactive) | > 100 µM (inactive) | > 100 µM (inactive) | 17.9 µM (inactive) | > 100 µM (inactive) | > 100 µM (inactive) | > 100 µM (inactive) | > 100 µM (inactive)
14 | CCN(CC)/[N+]([O-])=N/OCOC(C)=O | > 100 µM (inactive) | > 100 | > 100 µM (inactive) | > 100 µM (inactive) | > 100 µM (inactive) | > 100 µM (inactive) | > 100 µM (inactive) |  | > 100 µM (inactive) | > 100 µM (inactive) | > 100 µM (inactive) | > 100 µM (inactive) | > 100 µM (inactive) | > 100 µM (inactive) | > 100 µM (inactive) | 65.9 µM (inactive) | > 100 µM (inactive) | > 100 µM (inactive) | > 100 µM (inactive) | > 100 µM (inactive)
15 | O=C(O)CSc1ccccc1C(=O)O | > 100 µM (inactive) | > 100 | > 100 µM (inactive) | > 100 µM (inactive) | > 100 µM (inactive) | > 100 µM (inactive) | > 100 µM (inactive) |  | > 100 µM (inactive) | > 100 µM (inactive) | > 100 µM (inactive) | 20.7 µM (inactive) | > 100 µM (inactive) | > 100 µM (inactive) | > 100 µM (inactive) | 6.03 µM (inactive) | > 100 µM (inactive) | > 100 µM (inactive) | > 100 µM (inactive) | > 100 µM (inactive)
